System: GPR65 KO HeLa cells + pLX empty vector
Test: cAMP detection, GPR65 KO HeLa + empty pLX vector (null control)
Type: cell-based, human
Conditions: Homo sapiens, 0.5 h; HeLa GPR65 KO + pLX, pH 7.1, 30 min, normalized to DMSO and 100 μM forskolin
How it was run: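 CRISPR GPR65-KO HeLa cells, lentivirally reconstituted with hGPR65, mGPR65 or empty vector, were treated at 5000 cells/well in HBSS/Hepes with 0.5 mM IBMX at pH 7.1. Compounds were tested at 25 μM (primary screen) or 195 nM–100 μM (dose curves) for 30 min at RT. cAMP was read by Lance Ultra TR-FRET (665/615 nm) after 1 hour.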

For CN1N=C(SCc2ccc(Cl)cc2Cl)Sc2c1cnn(C)c2=O [BTB09089, reference compound], the EC50 was > 100 µM.

Reference: publication PMC11259170, “Small-molecule probe for IBD risk variant GPR65 I231L alters cytokine signaling networks through positive allosteric modulation” (Science Advances, 2024)
